Experimental data from US20080124287A1, “Cosmetic composition having whitening effect comprising extract of pulsatilla radix as main ingredient” (priority 2002, published 2008).
Entries after “also recorded” stand apart in the source; their conditions may differ.

What was measured:
Tyrosinase = assay: Measurement of inhibition action against tyrosinase; format: biochemical
Method: Tyrosinase was purchased from Sigma Company. The enzyme was dissolved in […]. Sodium phosphate buffer (0.1 M, pH 6.0), a substrate of enzyme and adjusted 1.6 mg/ml of concentration to obtain an enzyme solution. Sample was dissolved in sodium phosphate buffer and the undissolved residue was filtered out. 0.7 ml of the buffer, 0.2 ml of sample and 0.1 ml (15.7 unit/ml) of the enzyme solution were mixed and after 60 seconds, absorbance was measured at 475 nm by spectrophotometer.
By the following equation, inhibition ratio(%) of tyrosinase was calculated.
Inhibition ratio(%) of tyrosinase=[1−(S−B)/C]×100
wherein, • S: Test tube having enzyme and sample, • B: Test tube having sample, • C: Test tube having enzyme.

liver spots of women = assay: Whitening effect of preparation composed of ranunculin, deoxypodophyllotoxin and SB365 on clinical trial; format: in vivo, human; conditions: concluded from compositions with and without SB365
Method: Pharmaceutical composition: 10 mg of ranunculin, 50 mg of deoxypodophyllotoxin, and 15 mg of SB365 were mixed well together with the base (19 g) to obtain pharmaceutical composition and the composition was rubbed on the area of liver spots three times a day till the time of curing.
A composition from which SB365 which was not effective on tyrosinase was deleted was used. The composition were administered to five women (F, G, H, I, K) having liver spots.

Water solubility = format: physicochemical

Row | SMILES | effect against tyrosinase (in words) (Tyrosinase) | whitening effect in clinical trials (liver spots of women) | water solubility (Water solubility) | inhibition against tyrosinase (Tyrosinase; at 0.03 μg/ml) | inhibition of activity of tyrosinase (Tyrosinase; at 0.03/g/ml)
1 | CC1OC(OC2C(O[C@H]3CC[C@@]4(C)C(CC[C@]5(C)C4CC=C4C6CC(C)(C)CC[C@]6(C(=O)O)CC[C@]45C)[C@]3(C)CO)OCC(OC3OC(CO)C(O)C(O)C3O)C2O)C(O)C(O)C1O (stereo partly drawn) [SB365, 3-O-α-L-ramnopyranosyl(1→2)-[β-D-glucopyranosyl(1→4)]-α-L-arabinopyranoside] | not effective; also recorded: did not inhibit; also recorded: no effect | have whitening effect; also recorded: excellent whitening effect |  |  | 
2 | COc1cc([C@@H]2c3cc4c(cc3C[C@H]3COC(=O)[C@@H]32)OCO4)cc(OC)c1OC [Deoxypodophyllotoxin] |  |  | very low and low | 38% | 38%
